In PubChem BioAssay AID602217 (Sanford-Burnham Center for Chemical Genomics, 2012):
Calls of active or inactive are those of the source.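 Rule for the calls: active = IC50 at or below a set limit; inactive = the rest.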

Tested on: HL-1 cardiomyocytes, 2-deoxyglucose injury, ATPLite luminescence, 2 h
Assay: 2-DG-induced HL-1 ATP loss suppression – cell-based, ATPLite luminescence, dose response (AID 602217);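 note: cells kept in glucose-free DMEM during the 2-deoxyglucose injury; potency of protection where actives preserve ATP signal against 2-deoxyglucose stress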

| Structure (SMILES) | IC50 |
| --- | --- |
| COc1ccc(NC(=O)c2cc(-c3ccccn3)nc3ccccc23)cc1S(=O)(=O)N(C)C | 20.5 µM (inactive) |
| O=C(c1cc(=O)[nH]c2ccccc12)N1CCN(S(=O)(=O)c2ccc(Cl)cc2)CC1 | 58.3 µM (inactive) |
| CCN1C(=O)/C(=C/c2nc3ccccc3c(=O)[nH]2)c2ccccc21 | > 79 µM (inactive) |
| O=C(Nc1ccccc1)c1nc[nH]c1C(=O)NCCCCCCNC(=O)c1[nH]cnc1C(=O)Nc1ccccc1 | > 79 µM (inactive) |
| COc1ccc(-c2csc(NC(=O)CCCc3nc4ccccc4c(=O)[nH]3)n2)cc1OC | > 79 µM (inactive) |
| COc1ccc(-c2cc(-c3nnc(COC(=O)c4ccncc4)o3)c3ccccc3n2)cc1OC | 24.7 µM (inactive) |
| COc1cc(CN2C[C@@H](CO)O[C@@H](n3cnc4c(Nc5ccccc5)ncnc43)C2)cc(OC)c1OC | > 79 µM (inactive) |
| NC(=O)c1nsc(C(=O)N(c2ccccc2F)C(C(=O)NCc2ccc(F)cc2)c2ccc(O)cc2)c1N (stereo not drawn) | 9.17 µM |
| COCCCN(Cc1ccco1)C(=O)Cn1ncc2c([nH]c3ccccc32)c1=O | 41.4 µM (inactive) |
| CC12C=CC(=O)CC1CCC1C2CCC2(C)C(O)C(O)CC12 (stereo not drawn) | > 79 µM (inactive) |
| COc1cccc(-c2cnc3c(NC=O)cc(-c4ccc(O)c(OC)c4)cn23)c1 | 27.4 µM (inactive) |
| CCOc1ccc(-n2cc(-c3ccccc3)c3c(N4CCOCC4)ncnc32)cc1 | 7.65 µM |
| COc1cc(C(=O)N/N=C/c2ccc(OC(=O)c3ccccc3)c(OC)c2)ccc1O | 37.6 µM (inactive) |
| COCCN1Cc2cccc(C(=O)Nc3cccc(-c4nc5ccccc5[nH]4)c3)c2C1=O | 8.5 µM |
| Cc1ccc(C)c(NC(=O)C(Sc2nc3ccccc3c(=O)n2CC(C)C)c2ccccc2)c1 (stereo not drawn) | 1.14 µM |
| O=C(NCC(=O)N(Cc1cccs1)C(C(=O)NC1CCCCC1)c1ccco1)c1ccco1 (stereo not drawn) | > 79 µM (inactive) |
| Nc1c(C(=O)N/N=C/c2cccnc2)oc2nc(-c3ccco3)cc(-c3ccco3)c12 | > 79 µM (inactive) |
| COc1ccc(C(C(=O)NCc2ccccc2)N(Cc2ccco2)C(=O)c2snc(C(N)=O)c2N)cc1 (stereo not drawn) | 39.5 µM (inactive) |
| CC(C)OCCCNC(=O)CCC(=O)NNc1nc2ccccc2c2nc(-c3ccccc3)nn12 | > 79 µM (inactive) |
| COc1ccc(-n2cc(-c3ccccc3)c3c(N4CCOCC4)ncnc32)cc1 | 4.4 µM |
| COc1cc(NC(=O)c2ccco2)c(OC)cc1NC(=O)c1cc(OC)c(OC)c(OC)c1 | 18.1 µM |

| Structure (SMILES) | IC50 |
| --- | --- |
| CNC(=O)c1ccc(-c2sc3nc(N4CCOCC4)c4c(c3c2N)CC(C)(C)OC4)o1 | 46.1 µM (inactive) |
| CCOC(=O)c1c2c3c(cccc3n(C)c1=O)C(=O)c1ccccc1-2 | > 79 µM (inactive) |
| CCOC(=O)C1CCN(c2cc3c(cc2NC(=O)c2ccc(OC)c(OC)c2)n(C)c(=O)n3C)CC1 | > 79 µM (inactive) |
| CCCNC(=O)c1ccc(N2CCC3(CC2)CC(c2ccccc2)=NO3)c(NC(=O)c2ccco2)c1 | 10.3 µM |
| COc1ccccc1CN(C(=O)CNC(=O)c1ccco1)C(C(=O)NCC1CCCO1)c1ccccc1 (stereo not drawn) | 71.3 µM (inactive) |
| COc1cc(-c2cc(C(=O)OCC(=O)NC3CC3)c3ccccc3n2)cc(OC)c1OC | 47.4 µM (inactive) |
| COc1ccc(OC)c(/C=N/NC(=O)c2cc3c(OC)c(OC)ccc3[nH]2)c1 | > 79 µM (inactive) |
| Cc1cc(C)c2c(N)c(C(=O)N/N=C/c3cccnc3)sc2n1 | > 79 µM (inactive) |
| CCOc1ncccc1C(=O)Nc1cccc(-c2nc3cccnc3s2)c1 | > 79 µM (inactive) |
| COc1ccccc1NC(=O)c1cc(-c2cc(OC)c(OC)c(OC)c2)nc2ccccc12 | 14.3 µM |
| CNC(=O)COC(=O)/C=C/c1cn(-c2ccccc2)nc1-c1ccc(C)o1 | > 79 µM (inactive) |
| O=C1OCCN1C(=O)[C@H]1[C@H](c2ccc([N+](=O)[O-])cc2)C(c2ccc(F)cc2)=NN1c1ccc(Br)cc1 | > 79 µM (inactive) |
| COc1cccc(-c2cnc3c(NC=O)cc(-c4cc(C)c(O)c(C)c4)cn23)c1 | > 79 µM (inactive) |
| CS(=O)(=O)c1ccc(-c2cnc3c(NC=O)cc(-c4ccsc4)cn23)cc1 | > 79 µM (inactive) |
| CCOc1cc(/C=C(\C#N)C(=O)Nc2ccc(S(N)(=O)=O)cc2)ccc1OCCN1CCOCC1 | > 79 µM (inactive) |
| O=C(N/N=C/c1ccccn1)c1cc(-c2cccc3ccccc23)n[nH]1 | 2.9 µM |
| COc1cccc(C(=O)Nc2c(C(N)=O)oc3ccccc23)c1 | 33.6 µM (inactive) |
| C=CCn1cnc2c(c1=O)c1nc3ccccc3nc1n2/N=C/c1cc(OC)c(OC)c(OC)c1 | 5.93 µM |
| COc1cc(NC(=O)c2cc3nc(-c4ccccc4)cc(-c4ccccc4)n3n2)cc(OC)c1OC | 23.9 µM (inactive) |
| COc1cc(-c2cc(NC(C)=O)c3ncc(-c4ccc(F)cc4)n3c2)cc(OC)c1OC | > 79 µM (inactive) |
| COc1cc(-c2cc(NC(C)=O)c3ncc(-c4cc(OC)c(OC)c(OC)c4)n3c2)cc(OC)c1OC | 6.4 µM |

| Structure (SMILES) | IC50 |
| --- | --- |
| Cc1nn(-c2ccccc2)c(N2CCCC2)c1/C=N/NC(=O)c1cc(-c2ccccn2)nc2ccccc12 | 19.5 µM |
| O=C(CN1CCN(c2ccccn2)CC1)Nc1ccc([N+](=O)[O-])cc1C(=O)Nc1ccccc1F | 17.9 µM |
| CC(=O)c1ccc(-c2ccc(C(=O)Nc3nc(-c4ccccn4)cs3)o2)cc1 | > 79 µM (inactive) |
| COc1cc(/C=C(\C#N)c2nc3ccc(C)cc3[nH]2)c([N+](=O)[O-])cc1OC | > 79 µM (inactive) |
| COc1cc(C(=O)N/N=C/c2sc(N3CCOCC3)nc2-c2ccccc2)cc(OC)c1OC | 22.6 µM (inactive) |
| O=C(CN(c1ccc2c(c1)OCCO2)S(=O)(=O)c1ccccc1)Nc1ccc2c(c1)OCO2 | > 79 µM (inactive) |
| COc1cc(-c2cc(C(=O)NCc3ccco3)c3ccccc3n2)cc(OC)c1OC | 31.6 µM (inactive) |
| COc1cc(/C=N/NC(=O)c2ccccc2)ccc1OS(=O)(=O)c1ccccc1 | > 79 µM (inactive) |
| CN(C)S(=O)(=O)c1ccc2[nH]cc(/C=C/c3nc4ccccc4c(=O)n3-c3ccccc3)c2c1 | 5 µM |
| O=CNc1cc(-c2ccc(C(=O)NC3CC3)cc2)cn2c(-c3ccccc3)cnc12 | 40.9 µM (inactive) |
| COc1ccccc1OP(=O)(Nc1cccnc1)Oc1ccccc1OC | 21.2 µM (inactive) |
| COc1cccc(/C=N/NC(=O)c2oc3nc(-c4ccccc4)cc(-c4ccco4)c3c2N)c1 | 4.97 µM |
| COc1ccc(-c2cnc3c(NC=O)cc(-c4cccc(NS(C)(=O)=O)c4)cn23)cc1OC | 33.5 µM (inactive) |
| COc1cc(/C=C/C(=O)Nc2ccc3nc4n(c(=O)c3c2)CCCC4)cc(OC)c1OC | 51.5 µM (inactive) |
| COc1cccc(-c2cnc3c(NC=O)cc(-c4cccc(NC(C)=O)c4)cn23)c1 | 17.6 µM |
| COc1ccc(-c2cc(NC(C)=O)c3ncc(-c4cccc(C(C)=O)c4)n3c2)cc1OC | > 79 µM (inactive) |
| O=C(COC(=O)c1c2c(nc3ccccc13)/C(=C/c1cccc([N+](=O)[O-])c1)CCC2)NC1CCS(=O)(=O)C1 (stereo not drawn) | > 79 µM (inactive) |
| COc1ccccc1N1CCN(C(=O)c2ccc3nc(-c4ccco4)c(-c4ccco4)nc3c2)CC1 | 16.4 µM |
| COc1nc(N/N=C/c2cc3c(cc2Br)OCO3)nc(N2CCOCC2)n1 | > 79 µM (inactive) |
| COc1ccc(COc2cc(-c3cccc(OC)c3)nc3ccc(NC(=O)c4cccnc4)cc23)cc1 | 5.96 µM |
| COc1ccc2c(c1OC)C(=O)N1c3ccccc3C(=O)N(c3ccccc3)C21 (stereo not drawn) | 11 µM |
